# Reference: PMC2074590 (British Journal of Cancer, 1996)
# Entries after “also recorded” stand apart in the source; their conditions may differ. Read-outs that look alike come from different tables or passages of the source.
# How the values were obtained:
# [1] = Body weight at monthly review; assay type: in vivo, human
# Protocol: Bridsh Journal of Cancer (1996) 74, 300-308 ? […] The agent was administered as a monthly depot intramuscular injection. […] The study was approved by the ethics committees of each clinical centre. Patients were eligible for the study if they were post- menopausal and age less than 81 years, with histologically verified breast cancer. […] Patients were excluded if they had serious intercurrent disease, a WHO performance status of greater than 2, and a life expectancy of less than 3 months or had received previous cytotoxic chemotherapy for advanced breast cancer. […] Patients 5-19 received 250 mg month-1 i.m. from the outset. […] Tumour response to therapy was evaluated according to UICC criteria (Hayward et al., 1977). To qualify for the 'no change' category, tumour growth had to stabilise for more than 6 months (Howell et al., 1988; Robertson et al., 1989). Body weight was recorded at each monthly review in the majority of patients. […] The procedure was applied after solid base clean up of a diethyl ether/hexane extract of serum. The study limit of quantification was 0.68 ng ml-'. […] Gonadotrophins follicle-stimulating hormone and lutenising hormone (FSH and LH) and SHBG were measured by RIA in the Regional Radioimmunoassay Laboratory of the University Hospital of South Manchester. Prolactin was measured by immunoradiometric assay using reagents supplied by Netria. Total cholesterol levels were determined enzymatically using a commercially available reagent (Diamed, Switzerland). Triglyceride levels were determined by the glyceryl phosphate oxidase-peroxidase-antiperox- idase method using a commercially available kit (Boehringer Mannheim, Germany). High-density lipoprotein (HDL) cholesterol levels were measured after pretreatment of the serum samples with buffered magnesium phosphotungstate, which selectively precipitates low-density lipoprotein (LDL) cholesterol, very low-density lipoprotein (VLDL) cholesterol and chylomicrons, leaving HDL cholesterol in the super- natant. Serum levels of LDL cholesterol were calculated using the Friedewald equation (Friedewald et al., 1972). […]
# [2] = tested on: serum FSH, LH, prolactin, SHBG; assay: Serum FSH, LH, prolactin and SHBG before and during treatment; assay type: in vivo, human
# Protocol: (§1) Bridsh Journal of Cancer (1996) 74, 300-308 ? […] The agent was administered as a monthly depot intramuscular injection. […] The study was approved by the ethics committees of each clinical centre. Patients were eligible for the study if they were post- menopausal and age less than 81 years, with histologically verified breast cancer. […] Patients were excluded if they had serious intercurrent disease, a WHO performance status of greater than 2, and a life expectancy of less than 3 months or had received previous cytotoxic chemotherapy for advanced breast cancer. […] Patients 5-19 received 250 mg month-1 i.m. from the outset. […] Tumour response to therapy was evaluated according to UICC criteria (Hayward et al., 1977). To qualify for the 'no change' category, tumour growth had to stabilise for more than 6 months (Howell et al., 1988; Robertson et al., 1989). Body weight was recorded at each monthly review in the majority of patients. […] The procedure was applied after solid base clean up of a diethyl ether/hexane extract of serum. The study limit of quantification was 0.68 ng ml-'. […] Gonadotrophins follicle-stimulating hormone and lutenising hormone (FSH and LH) and SHBG were measured by RIA in the Regional Radioimmunoassay Laboratory of the University Hospital of South Manchester. Prolactin was measured by immunoradiometric assay using reagents supplied by Netria. Total cholesterol levels were determined enzymatically using a commercially available reagent (Diamed, Switzerland). Triglyceride levels were determined by the glyceryl phosphate oxidase-peroxidase-antiperox- idase method using a commercially available kit (Boehringer Mannheim, Germany). High-density lipoprotein (HDL) cholesterol levels were measured after pretreatment of the serum samples with buffered magnesium phosphotungstate, which selectively precipitates low-density lipoprotein (LDL) cholesterol, very low-density lipoprotein (VLDL) cholesterol and chylomicrons, leaving HDL cholesterol in the super- natant. Serum levels of LDL cholesterol were calculated using the Friedewald equation (Friedewald et al., 1972). Endometrial assessment Endometrial thickness was measured in transverse section by transabdominal ultrasound using a Siemens Sonoline SL2 with a 3.5 MHz sector probe. Baseline and repeat scans at 3-6 monthly intervals were performed in five patients. […] Pharmacokinectic data were analysed using para- metric statistics. Data relating to body weight, serum gonadotrophin, SHBG and lipid levels were analysed using non-parametric statistics. The null hypothesis was rejected at a probability level of P<0.05. […] However, samples were not available between day 2 and day 8.
# breast cancer cells = tested on: breast cancer cells; parameters: method as in Wakeling and Bowler, 1987, 1988; details: ref Wakeling and Bowler, 1987, 1988; cited from earlier work
# [3] = tested on: Ki67, ER, PgR, pS2 in primary breast cancer; details: short-acting propylene glycol-based formulation, daily i.m. for 1 week before surgery, ref DeFriend et al., 1994b, Nicholson et al.; cited from earlier work
# [4] = Serum concentrations of ICI 182780 by radioimmunoassay (pharmacokinetics of monthly i.m. depot); assay type: in vivo, human; details: for Cmax: human, serum
# Protocol: as §1
# [5] = 250 mg monthly i.m., first month
# [6] = 250 mg monthly i.m., sixth month
compound,measurement,setting,value
"C[C@]12CC[C@@H]3c4ccc(O)cc4C[C@@H](CCCCCCCCC[S+]([O-])CCCC(F)(F)C(F)(F)F)[C@H]3[C@@H]1CC[C@@H]2O (stereo partly shown) [ICI 182780, 7a-[9(4,4,5,5,pentafluoropentyl-sulphinyl)nonyl]oestra-1 ,3,5,(10)-triene-3,17,B-diol]",Mean body weight (s.d.),"[1]; after 10 months, n = 9",64.5 ± 17.2 kg
same,Mean body weight (s.d.),"[1]; after 16 months, n=9",64.2 ± 18.3 kg
same,Change in body weight during treatment,[1]; baseline mean 63.8 kg (n=13),no significant changes
same,"Serum SHBG, median level","[2]; after 8 months of treatment, median pretreatment 100, P=NS",55 nM
same,"Serum LH, median post-treatment value","[2]; first 3 months of administration, median pre-treatment 26, P<0.005",42 IU 1-1
same,"Serum FSH, median post-treatment value","[2]; first 3 months of administration, median pre-treatment 26, P<0.05",52 IU l-1
same,Change in serum SHBG,[2]; in vivo,no significant changes; also recorded: overall trend to decrease
same,Change in serum gonadotrophin levels after the first 3 months,[2]; in vivo,no further significant overall changes
same,Change in serum prolactin,[2]; throughout the treatment period,no significant changes; also recorded: did not change significantly
same,Potency as inhibitor of cell growth in vitro relative to tamoxifen,breast cancer cells,up to two orders of magnitude more potent than tamoxifen
same,"Expression of ER, PgR and pS2 vs pretreatment samples",[3],reduced or absent expression
same,Tumour proliferation (Ki67 expression) vs pretreatment samples,[3],reduced proliferation
same,"AUC, first month",[4]; [5],140.5 ng·days/mL
same,"Mean end-of-month concentration, first month",[4]; [5],3.1 ng/mL
same,"AUC, sixth month",[4]; [6],206.8 ng·days/mL
same,"Mean end-of-month concentration, sixth month",[4]; [6],5.6 ng/mL
same,"Difference in Cmax and AUC, partial response vs no change patients",[4]; after 6 months of treatment,no significant difference
same,Increase in AUC,[4]; after 6 months vs month 1,50%
same,Increase in mean end of month drug levels,[4]; after 6 months vs month 1,80%
same,Cmax,"[4]; female, im, 250 mg, 250 mg monthly i.m., first month, read-out: Cmax, first month (mean)",10.5 ng/mL
same,Cmax,"[4]; female, im, 250 mg, 250 mg monthly i.m., sixth month, read-out: Cmax, sixth month (mean)",12.6 ng/mL
same,Cmax,"[4]; female, intramuscular, no change patients, read-out: Median Cmax at month 6",12.8 ng/mL
same,Cmax,"[4]; female, intramuscular, no change patients, read-out: Median Cmax on entry",9.3 ng/mL
same,Cmax,"[4]; female, intramuscular, partial response patients, read-out: Median Cmax at month 6",11 ng/mL
same,Cmax,"[4]; female, intramuscular, partial response patients, read-out: Median Cmax on entry",7.7 ng/mL
same,Cmax,"[4]; female, intramuscular, progressive disease patients, read-out: Median Cmax on entry",5.6 ng/mL
same,Release of drug from slow release formulation,[4]; following both the 100 mg and 250 mg doses,continuous release of drug
same,Cmax,"[4]; intramuscular, 100 mg, patient 1 (progressive disease), 100 mg dose at entry, read-out: Cmax on entry",4.4 ng/mL
same,Cmax,"[4]; intramuscular, 100 mg, patient 2 (no change), 100 mg dose at entry, read-out: Cmax on entry",1.8 ng/mL
same,Cmax,"[4]; intramuscular, 100 mg, patient 3 (partial response), 100 mg dose at entry, read-out: Cmax on entry",2.9 ng/mL
same,Cmax,"[4]; intramuscular, 100 mg, patient 4 (progressive disease), 100 mg dose at entry, read-out: Cmax on entry",1.6 ng/mL
same,Cmax,"[4]; intramuscular, 250 mg, patient 2 (no change), 250 mg, read-out: Cmax at month 6",7.5 ng/mL
same,Cmax,"[4]; intramuscular, 250 mg, patient 3 (partial response), 250 mg, read-out: Cmax at month 6",9.9 ng/mL
same,Cmax,"[4]; intramuscular, 250 mg, patient 5 (partial response), 250 mg, read-out: Cmax at month 6",17.6 ng/mL
same,Cmax,"[4]; intramuscular, 250 mg, patient 5 (partial response), 250 mg, read-out: Cmax on entry",17.4 ng/mL
same,Cmax,"[4]; intramuscular, 250 mg, patient 6 (partial response), 250 mg, read-out: Cmax on entry",7.7 ng/mL
same,Cmax,"[4]; intramuscular, 250 mg, patient 7 (progressive disease), 250 mg, read-out: Cmax on entry",5.5 ng/mL
same,Cmax,"[4]; intramuscular, 250 mg, patient 8 (partial response), 250 mg, read-out: Cmax at month 6",10 ng/mL
same,Cmax,"[4]; intramuscular, 250 mg, patient 8 (partial response), 250 mg, read-out: Cmax on entry",5.9 ng/mL
same,Cmax,"[4]; intramuscular, 250 mg, patient 9 (progressive disease), 250 mg, read-out: Cmax on entry",9.7 ng/mL
same,Cmax,"[4]; intramuscular, 250 mg, patient 10 (partial response), 250 mg, read-out: Cmax at month 6",9.1 ng/mL
same,Cmax,"[4]; intramuscular, 250 mg, patient 10 (partial response), 250 mg, read-out: Cmax on entry",14.8 ng/mL
same,Cmax,"[4]; intramuscular, 250 mg, patient 11 (progressive disease), 250 mg, read-out: Cmax on entry",29.9 ng/mL
same,Cmax,"[4]; intramuscular, 250 mg, patient 12 (no change), 250 mg, read-out: Cmax at month 6",12.2 ng/mL
same,Cmax,"[4]; intramuscular, 250 mg, patient 12 (no change), 250 mg, read-out: Cmax on entry",7.2 ng/mL
same,Cmax,"[4]; intramuscular, 250 mg, patient 13 (progressive disease), 250 mg, read-out: Cmax at month 6",15.8 ng/mL
same,Cmax,"[4]; intramuscular, 250 mg, patient 13 (progressive disease), 250 mg, read-out: Cmax on entry",5.6 ng/mL
same,Cmax,"[4]; intramuscular, 250 mg, patient 14 (partial response), 250 mg, read-out: Cmax at month 6",13.5 ng/mL
same,Cmax,"[4]; intramuscular, 250 mg, patient 14 (partial response), 250 mg, read-out: Cmax on entry",9.1 ng/mL
